Measurements as given in patent publication US10231453B2, “5-substituted imidazole derivatives” (BAYER CROPSCIENCE AKTIENGESELLSCHAFT, priority 2015, dated 2019).
Marks after values point to notes of the source that are not given here.

Assays:
[1] = Measurement of LogP values by HPLC on reversed phase columns (EEC directive 79/831 Annex V.A8); type: physicochemical; conditions: for chromatographic logP: method [a]: LC-UV, acidic range, 0.1% formic acid in water and acetonitrile as eluent, Table 1
Protocol: Measurement of Log P values was performed as outlined above.

Puccinia recondita = assay: In vivo preventive test on Puccinia recondita (brown rust on wheat), Examples C and R3; conditions: preventive spray, evaluated 11 days after inoculation; for Efficacy in %: Example R3, wheat; for pest or weed control at 500 ppm: Puccinia recondita, 264 h, 500 ppm of active ingredient, wheat, read-out: efficacy
Septoria tritici = assay: In vivo preventive test on Septoria tritici (leaf spot on wheat), Examples E, Q3 and R5; conditions: Zymoseptoria tritici, 576 h, 500 ppm of active ingredient; wheat, preventive spray, evaluated 24 days after inoculation; read-out: efficacy
Uromyces appendiculatus = assay: In vivo preventive test on Uromyces appendiculatus (bean rust), Examples G and R7; conditions: 264 h, 500 ppm of active ingredient, bean, preventive spray, evaluated 11 days after inoculation, read-out: efficacy
Sphaerotheca fuliginea = assay: In vivo preventive test on Sphaerotheca fuliginea (powdery mildew on cucurbits), Examples F and R6; conditions: Podosphaera fuliginea, 360 h; 500 ppm of active ingredient; gherkin, preventive spray, evaluated 15 days after inoculation; read-out: efficacy

N#Cc1cncn1CC(O)(Cc1ccncc1Br)C1(Cl)CC1 (racemic) [Example I-46]
LogP [1]: 1.94^[a]

N#Cc1cncn1CC(O)(Cc1ccc(Oc2ccc(Cl)cc2)cc1Cl)C1(Cl)CC1 (racemic) [Example I-53]
LogP [1]: 4.54^[a]

O=C(Cc1ccccc1F)c1cncn1CC(O)(Cc1ccccc1F)C1(Cl)CC1 (racemic) [Example I-134]
LogP [1]: 3.60^[a]

OC(Cc1ccc(Cl)cc1F)(Cn1cnc(Br)c1)C1(Cl)CC1 (racemic) [drawing 98]
Efficacy in % (Puccinia recondita; 100 ppm): 0% | Efficacy in % (Puccinia recondita; 500 ppm): 94%

N#Cc1cn(CC(O)(Cc2ccc(Cl)cc2F)C2(Cl)CC2)cn1 (racemic) [drawing 100]
Efficacy in % (Puccinia recondita; 100 ppm): 81% | Efficacy in % (Puccinia recondita; 500 ppm): 94%

OC(Cc1ccc(Cl)cc1F)(Cn1cnc(Cl)c1)C1(Cl)CC1 (racemic) [drawing 102]
Efficacy in % (Puccinia recondita; 100 ppm): 0% | Efficacy in % (Puccinia recondita; 500 ppm): 67%

OC(Cc1ccc(Cl)cc1F)(Cn1cncc1Cl)C1(Cl)CC1 (single isomer, unassigned) [Example I-113]
LogP [1]: 2.54^[a]

N#Cc1cncn1CC(O)(Cc1ccccc1F)C1(Cl)CC1 (single isomer, unassigned) [Example I-132]
LogP [1]: 2.59^[a]

N#Cc1cncn1CC(O)(Cc1ccccc1F)C1(Cl)CC1 (single isomer, unassigned) [Example I-133]
LogP [1]: 2.59^[a]

OC(Cc1ccccc1Cl)(Cn1cncc1-c1ccccc1)C1(Cl)CC1 (stereo not shown) [Example I-09]
pest or weed control at 500 ppm (Septoria tritici): 70 to 79% | pest or weed control at 500 ppm (Uromyces appendiculatus): 90 to 100% | pest or weed control at 500 ppm (Sphaerotheca fuliginea): 90 to 100%

N#Cc1cncn1CC(O)(C(F)c1ccccc1F)C1(Cl)CC1 (stereo not shown) [Example I-31]
pest or weed control at 500 ppm (Septoria tritici): 90 to 100% | pest or weed control at 500 ppm (Uromyces appendiculatus): 90 to 100% | pest or weed control at 500 ppm (Sphaerotheca fuliginea): 90 to 100% | pest or weed control at 500 ppm (Puccinia recondita): 90 to 100%

N#Cc1cncn1CC(O)(Cc1ccc(Cl)cc1Cl)C1(Cl)CC1 (stereo not shown) [Example I-52]
pest or weed control at 500 ppm (Septoria tritici): 90 to 100% | pest or weed control at 500 ppm (Uromyces appendiculatus): 90 to 100% | pest or weed control at 500 ppm (Sphaerotheca fuliginea): 90 to 100% | pest or weed control at 500 ppm (Puccinia recondita): 80 to 89%

N#Cc1cncn1CC(O)(Cc1cc(Cl)nc(Cl)c1)C1(Cl)CC1 (stereo not shown) [Example I-61]
pest or weed control at 500 ppm (Septoria tritici): 90 to 100% | pest or weed control at 500 ppm (Uromyces appendiculatus): 90 to 100% | pest or weed control at 500 ppm (Sphaerotheca fuliginea): 90 to 100% | pest or weed control at 500 ppm (Puccinia recondita): 70 to 79%

N#Cc1cncn1CC(O)(Cc1ccc(-c2ccccc2)cc1)C1(Cl)CC1 (stereo not shown) [Example I-63]
chromatographic logP [1]: 3.68

N#Cc1cncn1CC(O)(Cc1ccccc1Cl)C1CCC1 (stereo not shown) [Example I-81]
pest or weed control at 500 ppm (Septoria tritici): 90 to 100% | pest or weed control at 500 ppm (Uromyces appendiculatus): 90 to 100% | pest or weed control at 500 ppm (Sphaerotheca fuliginea): 90 to 100% | pest or weed control at 500 ppm (Puccinia recondita): 90 to 100%

CC(C)(C)CC(O)(Cc1ccccc1Cl)Cn1cncc1C#N (stereo not shown) [Example I-83]
chromatographic logP [1]: 3.55

CC(C)(C)CC(O)(Cc1ccc(Cl)cc1)Cn1cncc1C#N (stereo not shown) [Example I-86]
chromatographic logP [1]: 3.37

N#Cc1cncn1CC(O)(Cc1ccc(F)c(F)c1F)C1(F)CC1 (stereo not shown) [Example I-93]
chromatographic logP [1]: 2.52

N#Cc1cncn1CC(O)(Cc1cccc(Cl)c1F)C1(F)CC1 (stereo not shown) [Example I-94]
chromatographic logP [1]: 2.68

N#Cc1cncn1CC(O)(Cc1ccc(F)cc1)C1(F)CC1 (stereo not shown) [Example I-100]
chromatographic logP [1]: 2.35

CC1(C(O)(Cc2ccc(F)c(F)c2F)Cn2cncc2C#N)CC1 (stereo not shown) [Example I-102]
chromatographic logP [1]: 2.82

N#Cc1cncn1CC(O)(Cc1ccc(Cl)cc1F)C1CC1 (stereo not shown) [Example I-115]
pest or weed control at 500 ppm (Septoria tritici): 90 to 100% | pest or weed control at 500 ppm (Uromyces appendiculatus): 90 to 100% | pest or weed control at 500 ppm (Sphaerotheca fuliginea): 90 to 100% | pest or weed control at 500 ppm (Puccinia recondita): 90 to 100%

N#Cc1cncn1CC(O)(Cc1ccc(F)cc1F)C1CCC1 (stereo not shown) [Example I-127]
pest or weed control at 500 ppm (Septoria tritici): 90 to 100% | pest or weed control at 500 ppm (Uromyces appendiculatus): 90 to 100% | pest or weed control at 500 ppm (Sphaerotheca fuliginea): 90 to 100% | pest or weed control at 500 ppm (Puccinia recondita): 80 to 89%

CCOC(=O)c1cncn1CC(O)(Cc1ccccc1F)C1(Cl)CC1 (stereo not shown) [Example I-135]
chromatographic logP [1]: 2.73

N#Cc1cncn1CC(O)(Cc1cccc(Cl)c1F)C1(Cl)CC1 (stereo not shown) [Example I-145]
chromatographic logP [1]: 3.02

N#Cc1cncn1CC(O)(Cc1ccc(F)cc1)C1(Cl)CCC1 (stereo not shown) [Example I-159]
chromatographic logP [1]: 2.98

N#Cc1cncn1CC(O)(Cc1ccc(F)cc1)C1CCC1 (stereo not shown) [Example I-160]
chromatographic logP [1]: 2.56

N#Cc1cncn1CC(O)(Cc1ccc(F)cc1)C1CCCC1 (stereo not shown) [Example I-161]
chromatographic logP [1]: 2.82

CC(C)C(O)(Cc1ccc(F)cc1)Cn1cncc1C#N (stereo not shown) [Example I-162]
chromatographic logP [1]: 2.44
